Laboratory results published in ChEMBL document CHEMBL1641496, “Imidazolylchromanone oxime ethers as potential anticonvulsant agents: Anticonvulsive evaluation in PTZ-kindling model of epilepsy and SAR study” (Bioorg Med Chem Lett, 2011).

Columns and labels:
[1] = test system: Rattus norvegicus; assay: Anticonvulsant activity against PTZ-induced kindling Wistar rat model assessed as duration of behavirol seizure at 30 mg/kg, ip; assay type: functional; conditions: route intraperitoneal
[2] = test system: Rattus norvegicus; assay: Anticonvulsant activity against PTZ-induced kindling Wistar rat model assessed as seizure latency at 30 mg/kg, ip; assay type: functional; conditions: route intraperitoneal
[3] = test system: Rattus norvegicus; assay: Neurotoxicity in Wistar rat at 30 mg/kg, ip by rotarod test; assay type: toxicity, organism-based; design: dose 30 mg/kg, route intraperitoneal; conditions: in vivo
[4] = test system: Rattus norvegicus; assay: Neurotoxicity in Wistar rat assessed as motor impairment at 30 mg/kg, ip by rotarod test; assay type: toxicity, organism-based; design: dose 30 mg/kg, route intraperitoneal; conditions: in vivo
[5] = test system: Rattus norvegicus; assay: Anticonvulsant activity against PTZ-induced kindling Wistar rat model assessed as duration of behavirol seizure at 100 mg/kg, ip; assay type: functional; conditions: route intraperitoneal
[6] = test system: Rattus norvegicus; assay: Anticonvulsant activity against PTZ-induced kindling Wistar rat model assessed as seizure latency at 200 mg/kg, ip; assay type: functional; conditions: route intraperitoneal
[7] = test system: Rattus norvegicus; assay: Anticonvulsant activity against PTZ-induced kindling Wistar rat model assessed as seizure latency at 100 mg/kg, ip; assay type: functional; conditions: route intraperitoneal
[8] = test system: Rattus norvegicus; assay: Anticonvulsant activity against PTZ-induced kindling Wistar rat model assessed as duration of behavirol seizure at 200 mg/kg, ip; assay type: functional; conditions: route intraperitoneal
[9] = test system: Rattus norvegicus; assay: Neurotoxicity in Wistar rat assessed as motor impairment at 100 mg/kg, ip by rotarod test; assay type: toxicity, organism-based; design: dose 100 mg/kg, route intraperitoneal; conditions: in vivo

Row | SMILES | Time [1] | Time [2] | also measured
1 | Clc1ccc(CO/N=C2/c3ccc(Cl)cc3OCC2n2ccnc2)cc1.O=[N+]([O-])O (racemic) | 47 s | 467 s | –
2 | O=[N+]([O-])O.c1ccc(CO/N=C2/c3ccccc3OCC2n2ccnc2)cc1 (racemic) | 49.8 s | 274 s | –
3 | Clc1ccc(CO/N=C2/c3ccc(Cl)cc3OCC2n2ccnc2)c(Cl)c1.O=[N+]([O-])O (racemic) | 40.3 s | 715 s | Activity [3]: Non-toxic; Activity [4]: 25%
4 | Clc1ccc(CO/N=C2\c3ccccc3OCC2n2ccnc2)cc1Cl.O=[N+]([O-])O (racemic) | 51.8 s | 266 s | –
5 | CC1Oc2cc(Cl)ccc2/C(=N/OCc2ccccc2)C1n1ccnc1.O=[N+]([O-])O (racemic) | 50.7 s | 282 s | –
6 | CCCC(CCC)C(=O)[O-].[Na+] [VALPROATE SODIUM] | – | – | Time [5]: 40.5 s; Time [6]: 900 s; Time [7]: 817 s; Time [8]: 26.5 s
7 | CC1Oc2ccccc2/C(=N/OCc2ccc(Cl)cc2Cl)C1n1ccnc1.O=[N+]([O-])O (racemic) | 42.8 s | 644 s | –
8 | CC1Oc2ccccc2/C(=N/OCc2cccc(F)c2)C1n1ccnc1.O=[N+]([O-])O (racemic) | 51.5 s | 321 s | –
9 | Clc1ccc(CO/N=C2/c3ccccc3OCC2n2ccnc2)c(Cl)c1.O=[N+]([O-])O (racemic) | 49.2 s | 358 s | –
10 | Clc1ccc(CO/N=C2/c3ccccc3OCC2n2ccnc2)cc1Cl.O=[N+]([O-])O (racemic) | 50.3 s | 285 s | –
11 | CC1Oc2ccccc2/C(=N/OCc2ccc(Br)cc2)C1n1ccnc1.O=[N+]([O-])O (racemic) | 51.3 s | 305 s | –
12 | Clc1ccc(CO/N=C2\c3ccccc3OCC2n2ccnc2)cc1.O=[N+]([O-])O (racemic) | 51 s | 258 s | –
13 | CC1Oc2ccccc2/C(=N/OCc2ccccc2F)C1n1ccnc1.O=[N+]([O-])O (racemic) | 51.7 s | 254 s | –
14 | Clc1ccc(CO/N=C2/c3ccccc3OCC2n2ccnc2)cc1.O=[N+]([O-])O (racemic) | 52 s | 237 s | –
15 | CC1Oc2ccccc2/C(=N/OCc2ccc(Cl)c(Cl)c2)C1n1ccnc1.O=[N+]([O-])O (racemic) | 47.5 s | 367 s | –
16 | Clc1ccc(CO/N=C2\c3ccccc3OCC2n2ccnc2)c(Cl)c1.O=[N+]([O-])O (racemic) | 49.3 s | 293 s | –
17 | CC1Oc2ccccc2/C(=N/OCc2ccccc2)C1n1ccnc1.O=[N+]([O-])O (racemic) | 52.7 s | 259 s | –
18 | CC1Oc2cc(Cl)ccc2/C(=N/OCc2ccc(Cl)cc2)C1n1ccnc1.O=[N+]([O-])O (racemic) | 45.5 s | 286 s | –
19 | CC1Oc2ccccc2/C(=N/OCc2ccc(F)cc2)C1n1ccnc1.O=[N+]([O-])O (racemic) | 52.3 s | 263 s | –
20 | CC1Oc2ccccc2/C(=N/OCc2ccc(Cl)cc2)C1n1ccnc1.O=[N+]([O-])O (racemic) | 49.7 s | 286 s | –
21 | Clc1ccc2c(c1)OCC(n1ccnc1)/C2=N\OCc1ccc(Cl)c(Cl)c1.O=[N+]([O-])O (racemic) | 48.5 s | 271 s | –
22 | Brc1ccc(CO/N=C2\c3ccccc3OCC2n2ccnc2)cc1.O=[N+]([O-])O (racemic) | 56.5 s | 261 s | –
23 | Brc1ccc(CO/N=C2/c3ccccc3OCC2n2ccnc2)cc1.O=[N+]([O-])O (racemic) | 54.8 s | 268 s | –
24 | O=[N+]([O-])O.c1ccc(CO/N=C2\c3ccccc3OCC2n2ccnc2)cc1 (racemic) | 50.8 s | 288 s | –
25 | CC1Oc2cc(Cl)ccc2/C(=N/OCc2ccc(Cl)cc2Cl)C1n1ccnc1.O=[N+]([O-])O (racemic) | 342 s | 776 s | Activity [3]: Non-toxic; Activity [9]: 50%
26 | Clc1ccc2c(c1)OCC(n1ccnc1)/C2=N\OCc1ccccc1.O=[N+]([O-])O (racemic) | 46.7 s | 323 s | –
